Legend:
[1] = biological target: recombinant BACE1 protein (Homo sapiens (Human), UniProt P56817); assay: BACE1 biochemical FRET based assay; conditions: for Selectivity: BACE1 versus BACE2; for IC50: FRET, pH 5.0
Description: (1) BACE1 Biochemical FRET Based Assay
(§1) This assay is a Fluorescence Resonance Energy Transfer Assay (FRET) based assay. The substrate for this assay is an APP derived 13 amino acids peptide that contains the ‘Swedish’ Lys-Met/Asn-Leu mutation of the amyloid precursor protein (APP) beta-site secretase cleavage site. This substrate also contains two fluorophores: (7-methoxycoumarin-4-yl) acetic acid (Mca) is a fluorescent donor with excitation wavelength at 320 nm and emission at 405 nm and 2,4-dinitrophenol (Dnp) is a proprietary quencher acceptor. […] Upon cleavage by BACE1, the fluorophore Mca is separated from the quenching group Dnp, restoring the full fluorescence yield of the donor. The increase in fluorescence is linearly related to the rate of proteolysis.
Briefly in a 384-well format recombinant BACE1 protein in a final concentration of 0.04 μg/mL was incubated for 450 minutes at room temperature with […] substrate in incubation buffer (final concentrations: 33.3 mM Citrate buffer pH 5.0, 0.033% PEG, 3% DMSO) in the absence or presence of compound. Next the amount of proteolysis was directly measured by fluorescence measurement at T=0′-120′ and T=450′ (excitation at 320 nm and emission at 405 nm). Results were expressed in RFU (Relative Fluorescence Units), as difference between T450 and Tx (Tx is chosen depending on the reaction speed between 0 and 120 minutes).
(§2) A best-fit curve was fitted by a minimum sum of squares method to the plot of % Controlmin versus compound concentration. From this an IC50 value (inhibitory concentration causing 50% inhibition of activity) can be obtained.
(§3) LC=Median of the low control values
(§4) =Low control: Reaction without enzyme
(§5) HC=Median of the High control values
=High Control: Reaction with enzyme % Effect=100−[(sample−LC)/(HC−LC)*100] % Control=(sample/HC)*100 % Controlmin=(sample−LC)/(HC−LC)*100

[2] = biological target: recombinant BACE2 protein (Homo sapiens (Human), UniProt Q9Y5Z0); assay: BACE2 biochemical FRET based assay; conditions: pH 5.0
Description: (2) BACE2 Biochemical FRET Based Assay
as §1, with “assay” for “assay is an APP derived 13 amino acids peptide that”, “beta-secretase” for “beta-site secretase”, “the beta-secretase,” for “BACE1,”
Briefly in a 384-well format recombinant BACE2 protein in a final concentration of 0.4 μg/mL was incubated for 450 minutes at room temperature with 10 μM substrate in incubation buffer (final concentrations: 33.3 mM Citrate buffer pH 5.0, 0.033% PEG, 2% DMSO) in the absence or presence of compound. Next the amount of proteolysis was directly measured by fluorescence measurement at T=0 and T=450 (excitation at 320 nm and emission at 405 nm). Results were expressed in RFU (Relative Fluorescence Units), as difference between T450 and TO.
as §2, §3, §4, §5

Metabolic stability test = type: in vitro ADME; conditions: human liver microsomes, 37° C., NADPH
Experimental: Using a commercially available pooled human liver microsomes, a compound of the present invention was reacted for a constant time, a remaining rate was calculated by comparing a reacted sample and an unreacted sample, thereby, a degree of metabolism in liver was assessed.
A reaction was performed (oxidative reaction) at 37° C. for 0 minute or 30 minutes in the presence of 1 mmol/L NADPH in 0.2 mL of a buffer (50 mmol/L Tris-HCl pH 7.4, 150 mmol/L potassium chloride, 10 mmol/L magnesium chloride) containing 0.5 mg protein/mL of human liver microsomes. After the reaction, 50 μL of the reaction solution was added to 100 μL of a methanol/acetonitrile=1/1 (v/v), mixed and centrifuged at 3000 rpm for 15 minutes. The compound of the present invention in the supernatant was quantified by LC/MS/MS or solid phase extraction (SPE)MS, and a remaining amount of the compound of the present invention after the reaction was calculated, letting a compound amount at 0 minute reaction time to be 100%.

[3] = biological target: P-gp (MDR1 expressing LLC-PK1 cells) (Homo sapiens (Human), UniProt P08183); assay: P-gp substrate test; type: in vitro ADME; conditions: MDR1/LLC-PK1 versus LLC-PK1
Experimental: 1. MDR1 expressing LLC-PK1 cells and its parent cells were routinely cultured in Medium A (Medium 199 (Invitrogen) supplemented with 10% FBS (Invitrogen), gentamycin (0.05 mg/mL, Invitrogen) and hygromycin B (100 μg/mL, Invitrogen)) at 37° C. under 5% CO2/[…] gasses. For the transport experiments, these cells were seeded on Transwell (Registered trademark) insert (96-well, pore size: 0.4 μm, Coaster) at a density of 1.4×10^4 cells/insert and added Medium B (Medium 199 supplemented with 10% FBS and gentamycin at 0.05 mg/mL) to the feeder tray. These cells were incubated in a CO2 incubator (5% CO2/[…] gasses, 37° C.) and replace apical and basolateral culture medium every 48-72 hr after seeding. These cells were used between 4 and 6 days after seeding. 2. The medium in the culture insert seeded with MDR1 expressing cells or parent cells were removed by aspiration and rinsed by HBSS. The apical side (140 μL) or basolateral side (175 μL) was replaced with transport buffer containing reference substrates and the present invention and then an aliquot (50 μL) of transport buffer in the donor side was collected to estimate initial concentration of reference substrate and the present invention. After incubation for designed time at 37° C., an aliquot (50 μL) of transport buffer in the donor and receiver side were collected. Assay was performed by duplicate or triplicate. 3. Reference substrate and the present invention in the aliquot was quantified by LC/MS/MS.
Permeated amounts across monolayers of MDR1 expressing and parent cells were determined, and permeation coefficients (Pe) were calculated using Excel 2003 from the following equitation: Pe (cm/sec)=Permeated amount (pmol)/area of cell membrane (cm^2)/initial concentration (nM)/incubation time (sec) Where, permeated amount was calculated from permeation concentration (nM, concentration of the receiver side) of the substance after incubation for the defined time (sec) multiplied by volume (mL) and area of cell membrane was used 0.1433 (cm2).
The efflux ratio was calculated using the following equation: Efflux Ratio=Basolateral-to-Apical Pe/Apical-to-Basolateral Pe The net flux was calculated using the following equation: Net flux=Efflux Ratio in MDR1 expressing cells/Efflux Ratio in parent cells

recombinant BACE1 protein, sequence (P56817 46-501): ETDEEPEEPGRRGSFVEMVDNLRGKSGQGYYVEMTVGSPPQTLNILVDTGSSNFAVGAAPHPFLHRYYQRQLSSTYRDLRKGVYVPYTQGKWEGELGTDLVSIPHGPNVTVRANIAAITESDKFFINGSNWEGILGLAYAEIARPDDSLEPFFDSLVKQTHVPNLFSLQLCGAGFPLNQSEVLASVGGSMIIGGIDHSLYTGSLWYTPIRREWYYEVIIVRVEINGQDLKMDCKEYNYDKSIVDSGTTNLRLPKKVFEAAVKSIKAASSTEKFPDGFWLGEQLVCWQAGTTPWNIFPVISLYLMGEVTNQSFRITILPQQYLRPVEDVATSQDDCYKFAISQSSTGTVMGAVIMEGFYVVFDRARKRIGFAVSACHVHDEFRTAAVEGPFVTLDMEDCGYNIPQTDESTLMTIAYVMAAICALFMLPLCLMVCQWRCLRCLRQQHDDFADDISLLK
P-gp (MDR1 expressing LLC-PK1 cells), sequence (P08183 whole entry): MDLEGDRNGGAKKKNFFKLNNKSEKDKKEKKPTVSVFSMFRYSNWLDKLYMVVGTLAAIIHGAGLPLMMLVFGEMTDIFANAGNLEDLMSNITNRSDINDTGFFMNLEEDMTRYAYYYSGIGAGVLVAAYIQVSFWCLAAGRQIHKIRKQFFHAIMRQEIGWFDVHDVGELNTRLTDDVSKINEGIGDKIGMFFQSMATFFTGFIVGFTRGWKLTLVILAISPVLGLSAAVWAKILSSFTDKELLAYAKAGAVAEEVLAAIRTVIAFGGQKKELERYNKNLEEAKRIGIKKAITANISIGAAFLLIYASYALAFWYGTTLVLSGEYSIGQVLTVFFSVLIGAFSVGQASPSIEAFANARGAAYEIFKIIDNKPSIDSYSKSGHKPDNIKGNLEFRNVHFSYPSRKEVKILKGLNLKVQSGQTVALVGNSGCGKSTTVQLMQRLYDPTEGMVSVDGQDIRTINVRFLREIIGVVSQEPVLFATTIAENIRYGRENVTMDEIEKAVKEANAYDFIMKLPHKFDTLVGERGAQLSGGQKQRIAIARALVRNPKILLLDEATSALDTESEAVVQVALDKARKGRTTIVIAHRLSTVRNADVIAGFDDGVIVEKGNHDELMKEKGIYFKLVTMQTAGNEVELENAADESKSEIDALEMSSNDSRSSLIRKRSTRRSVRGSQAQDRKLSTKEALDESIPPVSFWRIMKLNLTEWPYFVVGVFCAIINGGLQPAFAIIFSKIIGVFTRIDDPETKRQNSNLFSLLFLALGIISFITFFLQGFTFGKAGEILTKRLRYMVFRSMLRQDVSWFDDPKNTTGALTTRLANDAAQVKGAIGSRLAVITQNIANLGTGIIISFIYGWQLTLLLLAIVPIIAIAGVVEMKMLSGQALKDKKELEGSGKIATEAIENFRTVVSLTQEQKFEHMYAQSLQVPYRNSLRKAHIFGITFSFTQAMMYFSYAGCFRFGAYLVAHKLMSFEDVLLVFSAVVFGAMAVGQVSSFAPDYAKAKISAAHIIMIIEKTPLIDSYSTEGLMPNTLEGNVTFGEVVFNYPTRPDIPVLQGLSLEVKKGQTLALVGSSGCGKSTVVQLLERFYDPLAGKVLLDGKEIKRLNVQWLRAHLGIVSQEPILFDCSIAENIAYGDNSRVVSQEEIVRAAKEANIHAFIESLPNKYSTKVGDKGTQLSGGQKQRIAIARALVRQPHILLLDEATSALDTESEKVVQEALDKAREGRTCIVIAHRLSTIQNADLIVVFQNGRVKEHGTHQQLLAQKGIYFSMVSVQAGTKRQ
recombinant BACE2 protein, sequence (Q9Y5Z0 63-518): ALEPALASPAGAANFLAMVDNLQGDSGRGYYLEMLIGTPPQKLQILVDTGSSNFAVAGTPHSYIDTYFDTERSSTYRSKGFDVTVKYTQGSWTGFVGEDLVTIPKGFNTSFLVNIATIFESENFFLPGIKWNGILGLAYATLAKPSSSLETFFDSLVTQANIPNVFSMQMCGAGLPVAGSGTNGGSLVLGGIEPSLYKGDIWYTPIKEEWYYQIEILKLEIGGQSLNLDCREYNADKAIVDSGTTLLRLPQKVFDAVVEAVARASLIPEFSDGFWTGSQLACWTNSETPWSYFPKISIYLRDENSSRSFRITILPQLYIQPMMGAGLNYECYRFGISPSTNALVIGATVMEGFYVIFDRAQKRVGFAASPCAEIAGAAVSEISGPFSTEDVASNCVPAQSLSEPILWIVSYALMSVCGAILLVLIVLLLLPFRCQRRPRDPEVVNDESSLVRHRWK

SMILES | Selectivity [1] | IC50 [1] [nM] | IC50 [2] [nM] | Remaining rate(%) at 30 min (Metabolic stability test) [%] | P-gp ER ratio [3]
NC1=N[C@](CF)(c2cc(NC(=O)c3cnc(OCF)cn3)ccc2F)[C@H]2COCC[C@H]2O1 [Compound I-007] | 40.7 | 7.4 | 302 | 107 | 5.5
C[C@@H]1C[C@H]2OC(N)=N[C@](CF)(c3cc(NC(=O)c4cnc(OCF)cn4)ccc3F)[C@H]2CO1 [Compound I-008] | 43.7 | 14.8 | 646 | 94.4 | 6.2
COc1cnc(C(=O)Nc2ccc(F)c([C@@]3(CF)N=C(N)O[C@@H]4CCOC[C@@H]43)c2)cn1 [Compound I-067] | 30.2 | 8.9 | 269 | 91.4 | 6.1
NC1=N[C@](CF)(c2cc(NC(=O)c3ccc(C(F)(F)F)cn3)ccc2F)[C@H]2COCC[C@H]2O1 [Compound I-105] | 17.8 | 17 | 302 | 87.9 | 7.1

Other lines, results leading:

Selectivity [1] | IC50 [1] [nM] | IC50 [2] [nM] | Remaining rate(%) at 30 min (Metabolic stability test) [%] | P-gp ER ratio [3] | SMILES
69.2 | 17 | 1180 | 61.6 | 4.7 | NC1=N[C@](CF)(c2cc(NC(=O)c3cnc(-n4cncn4)cn3)ccc2F)[C@H]2COCC[C@H]2O1 [Compound I-047]
35.5 | 9.5 | 339 | 79.6 | 5.7 | C[C@@H]1C[C@H]2OC(N)=N[C@](CF)(c3cc(NC(=O)c4cnc(OCF)cn4)ccc3Cl)[C@H]2CO1 [Compound I-065]
63.1 | 2.8 | 178 | 91.7 | 6.2 | NC1=N[C@](CF)(c2cc(NC(=O)c3cnc(OC(F)F)cn3)ccc2F)[C@H]2COCC[C@H]2O1 [Compound I-076]
